Reference: US11230543B2, “Biaryl monobactam compounds and methods of use thereof for the treatment of bacterial infections” (priority 2015, dated 2022)
Where a name gives a salt, the structure may show the parent alone.

How the values were obtained:
[1] = tested on: Klebsiella pneumoniae expressing KPC-1 (CL6569); experiment: Antibiotic activity: growth inhibitory concentration (OD600), Klebsiella pneumoniae CL6569; format: cell-based; settings: lowest concentration inhibiting 95% of bacterial growth; in the presence of β lactamase inhibitor Relebactam 4 μg/mL; 35±2° C. for 22 hours; tested range 100 μM to 0.098 μM
How it was run: (§1)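 Growth inhibition by OD600 after 22 hours incubation at 35±2° C, reported as lowest concentration inhibiting 95% of growth (MITC95). Final compound range 100 μM to 0.098 μM, always combined with β-lactamase inhibitor relebactam (4 μg/mL final); inoculum ~2×10^5 CFU/mL in cation-adjusted Mueller-Hinton II broth.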

[2] = tested on: Pseudomonas aeruginosa expressing AmpC (CL5701); experiment: Antibiotic activity: growth inhibitory concentration (OD600), Pseudomonas aeruginosa CL5701; format: cell-based; settings: lowest concentration inhibiting 95% of bacterial growth; in the presence of β lactamase inhibitor Relebactam 4 μg/mL; 35±2° C. for 22 hours; tested range 100 μM to 0.098 μM
How it was run: as §1

SMILES | KP_CL6569 MITC95 [1] | PA_CL5701 MITC95 [2]
C[n+]1ccc(-c2ccc(OC[C@H](O/N=C(\C(=O)N[C@@H]3C(=O)N(OS(=O)(=O)[O-])C3(C)C)c3csc(N)n3)C(=O)O)cc2)cc1NCCCN [Example 63, (S)-3-((Z)-2-(((S)-2-(4-(2-((3-aminopropyl)amino)-1-methylpyridin-1-ium-4-yl)phenoxy)-1-carboxyethoxy)imino)-2-(2-aminothiazol-4-yl)acetamido)-2,2-dimethyl-4-oxoazetidin-1-yl sulfate] | 0.3906 µM | 6.25 µM
CC1(C)[C@H](NC(=O)/C(=N\O[C@@H](COc2ccc(-c3ccnc(NCCCN)c3)cc2)C(=O)O)c2csc(N)n2)C(=O)N1OS(=O)(=O)O [Example 64, (S)-3-((Z)-2-(((S)-2-(4-(2-((3-aminopropyl)amino)pyridin-4-yl)phenoxy)-1-carboxyethoxy)imino)-2-(2-aminothiazol-4-yl)acetamido)-2,2-dimethyl-4-oxoazetidin-1-yl sulfate] | 1.563 µM | 12.5 µM
C[n+]1ccc(-c2ccc(OC[C@H](O/N=C(\C(=O)N[C@@H]3C(=O)N(OS(=O)(=O)[O-])C3(C)C)c3csc(N)n3)C(=O)O)cc2)cc1NCC1CNC1 [Example 65, (S)-3-((Z)-2-(2-aminothiazol-4-yl)-2-(((S)-2-(4-(2-((azetidin-3-ylmethyl)amino)-1-methylpyridin-1-ium-4-yl)phenoxy)-1-carboxy-ethoxy)imino)acetamido)-2,2-dimethyl-4-oxoazetidin-1-yl sulfate] | 0.3906 µM | 12.5 µM
C[n+]1cc(-c2ccc(OC[C@H](O/N=C(\C(=O)N[C@@H]3C(=O)N(OS(=O)(=O)[O-])C3(C)C)c3csc(N)n3)C(=O)O)cc2)ccc1NCCN [Example 66, (S)-3-((Z)-2-(((S)-2-(4-(6-((2-aminoethyl)amino)-1-methylpyridin-1-ium-3-yl)phenoxy)-1-carboxyethoxy)imino)-2-(2-aminothiazol-4-yl)acetamido)-2,2-dimethyl-4-oxoazetidin-1-yl sulfate] | 0.2135 µM | 1.708 µM
C[n+]1cc(-c2ccc(OC[C@H](O/N=C(\C(=O)N[C@@H]3C(=O)N(OS(=O)(=O)[O-])C3(C)C)c3nc(N)sc3Cl)C(=O)O)cc2)ccc1NCCN [Example 67, (S)-3-((Z)-2-(2-amino-5-chlorothiazol-4-yl)-2-(((S)-2-(4-(6-((2-aminoethyl)amino)-1-methylpyridin-1-ium-3-yl)phenoxy)-1-carboxyethoxy)imino)acetamido)-2,2-dimethyl-4-oxoazetidin-1-yl sulfate] | 0.7813 µM | 6.25 µM
C[n+]1cc(-c2ccc(OC[C@H](O/N=C(\C(=O)N[C@@H]3C(=O)N(OS(=O)(=O)[O-])C3(C)C)c3csc(N)n3)C(=O)O)cc2F)ccc1NCCN [Example 68, (S)-3-((Z)-2-(((S)-2-(4-(6-((2-aminoethyl)amino)-1-methylpyridin-1-ium-3-yl)-3-fluorophenoxy)-1-carboxyethoxy)imino)-2-(2-aminothiazol-4-yl)acetamido)-2,2-dimethyl-4-oxoazetidin-1-yl sulfate] | 0.1953 µM | 3.125 µM
C[n+]1cc(-c2ccc(OC[C@H](O/N=C(\C(=O)N[C@@H]3C(=O)N(OS(=O)(=O)[O-])C3(C)C)c3nc(N)sc3Cl)C(=O)O)cc2F)ccc1NCCN [Example 69, (S)-3-((Z)-2-(2-amino-5-chlorothiazol-4-yl)-2-(((S)-2-(4-(6-((2-aminoethyl)amino)-1-methylpyridin-1-ium-3-yl)-3-fluorophenoxy)-1-carboxyethoxy)imino)acetamido)-2,2-dimethyl-4-oxoazetidin-1-yl sulfate] | 0.3906 µM | 3.125 µM
CC1(C)[C@H](NC(=O)/C(=N\O[C@@H](COc2ccc(-c3cnc(NCCN)nc3)cc2)C(=O)O)c2csc(N)n2)C(=O)N1OS(=O)(=O)O [Example 70, (S)-3-(4-(2-((2-aminoethyl)amino)pyrimidin-5-yl)phenoxy)-2-((((Z)-1-(2-aminothiazol-4-yl)-2-(((S)-2,2-dimethyl-4-oxo-1-(sulfooxy)azetidin-3-yl)amino)-2-oxoethylidene)amino)oxy)propanoic acid] | 0.7813 µM | 6.25 µM
C[n+]1cc(-c2ccc(OC[C@H](O/N=C(\C(=O)N[C@@H]3C(=O)N(OS(=O)(=O)[O-])C3(C)C)c3csc(N)n3)C(=O)O)cc2)ccc1N1CCNCC1 [Example 71, (S)-3-((Z)-2-(2-aminothiazol-4-yl)-2-(((S)-1-carboxy-2-(4-(1-methyl-6-(piperazin-1-yl)pyridin-1-ium-3-yl)phenoxy)ethoxy)imino)acetamido)-2,2-dimethyl-4-oxoazetidin-1-yl sulfate] | 0.1953 µM | 6.25 µM
C[n+]1cc(NCCN)ccc1-c1ccc(OC[C@H](O/N=C(\C(=O)N[C@@H]2C(=O)N(OS(=O)(=O)[O-])C2(C)C)c2csc(N)n2)C(=O)O)cc1 [Example 72, (S)-3-((Z)-2-(((S)-2-(4-(5-((2-aminoethyl)amino)-1-methylpyridin-1-ium-2-yl)phenoxy)-1-carboxyethoxy)imino)-2-(2-aminothiazol-4-yl)acetamido)-2,2-dimethyl-4-oxoazetidin-1-yl sulfate] | 0.3906 µM | 6.25 µM
C[n+]1cc(-c2ccc(OC[C@H](O/N=C(\C(=O)N[C@@H]3C(=O)N(OS(=O)(=O)[O-])C3(C)C)c3csc(N)n3)C(=O)O)cc2)ccc1NCC1(O)CNC1 [Example 73, (S)-3-((Z)-2-(2-aminothiazol-4-yl)-2-(((S)-1-carboxy-2-(4-(6-(((3-hydroxyazetidin-3-yl)methyl)amino)-1-methylpyridin-1-ium-3-yl)phenoxy)ethoxy)imino)acetamido)-2,2-dimethyl-4-oxoazetidin-1-yl sulfate] | 0.1953 µM | 3.125 µM
C[n+]1cc(-c2ccc(OC[C@H](O/N=C(\C(=O)N[C@@H]3C(=O)N(OS(=O)(=O)[O-])C3(C)C)c3csc(N)n3)C(=O)O)cc2)ccc1NCC1(N)CC1 [Example 74, (S)-3-((Z)-2-(((S)-2-(4-(6-(((1-aminocyclopropyl)methyl)amino)-1-methylpyridin-1-ium-3-yl)phenoxy)-1-carboxyethoxy)imino)-2-(2-aminothiazol-4-yl)acetamido)-2,2-dimethyl-4-oxoazetidin-1-yl sulfate] | 0.1953 µM | 6.25 µM
CC(CN)Nc1ccc(-c2ccc(OC[C@H](O/N=C(\C(=O)N[C@@H]3C(=O)N(OS(=O)(=O)[O-])C3(C)C)c3csc(N)n3)C(=O)O)cc2)c[n+]1C (stereo partly drawn) [Example 75, (3S)-3-((Z)-2-(((1S)-2-(4-(6-((1-aminopropan-2-yl)amino)-1-methylpyridin-1-ium-3-yl)phenoxy)-1-carboxyethoxy)imino)-2-(2-aminothiazol-4-yl)acetamido)-2,2-dimethyl-4-oxoazetidin-1-yl sulfate] | 0.1953 µM | 3.125 µM
CC(CN)Nc1ccc(-c2ccc(OC[C@H](O/N=C(\C(=O)N[C@@H]3C(=O)N(OS(=O)(=O)[O-])C3(C)C)c3csc(N)n3)C(=O)O)cc2)c[n+]1C (stereo partly drawn) [Example 76, (3S)-3-((Z)-2-(((1S)-2-(4-(6-((1-aminopropan-2-yl)amino)-1-methylpyridin-1-ium-3-yl)phenoxy)-1-carboxyethoxy)imino)-2-(2-aminothiazol-4-yl)acetamido)-2,2-dimethyl-4-oxoazetidin-1-yl sulfate] | 0.1953 µM | 3.125 µM
C[n+]1cc(-c2ccc(OC[C@H](O/N=C(\C(=O)N[C@@H]3C(=O)N(OS(=O)(=O)[O-])C3(C)C)c3csc(N)n3)C(=O)O)cc2)cnc1NCCN [Example 77, (S)-3-((Z)-2-(((S)-2-(4-(2-((2-aminoethyl)amino)-1-methylpyrimidin-1-ium-5-yl)phenoxy)-1-carboxyethoxy)imino)-2-(2-aminothiazol-4-yl)acetamido)-2,2-dimethyl-4-oxoazetidin-1-yl sulfate] | 0.3906 µM | 3.125 µM
C[n+]1cc(-c2ccc(OC[C@H](O/N=C(\C(=O)N[C@@H]3C(=O)N(OS(=O)(=O)[O-])C3(C)C)c3csc(N)n3)C(=O)O)cc2)ccc1CNCCN [Example 78, (S)-3-((Z)-2-(((S)-2-(4-(6-(((2-aminoethyl)amino)methyl)-1-methylpyridin-1-ium-3-yl)phenoxy)-1-carboxyethoxy)imino)-2-(2-aminothiazol-4-yl)acetamido)-2,2-dimethyl-4-oxoazetidin-1-yl sulfate] | 0.7813 µM | 12.5 µM
C[n+]1cc(-c2ccc(OC[C@H](O/N=C(\C(=O)N[C@@H]3C(=O)N(OS(=O)(=O)[O-])C3(C)C)c3csc(N)n3)C(=O)O)cc2)ccc1CNC(CN)CN [Example 79, (S)-3-((Z)-2-(2-aminothiazol-4-yl)-2-(((S)-1-carboxy-2-(4-(6-(((1,3-diaminopropan-2-yl)amino)methyl)-1-methylpyridin-1-ium-3-yl)phenoxy)ethoxy)imino)acetamido)-2,2-dimethyl-4-oxoazetidin-1-yl sulfate] | 0.3906 µM | 6.25 µM
C[n+]1cc(-c2ccc(OC[C@H](O/N=C(\C(=O)N[C@@H]3C(=O)N(OS(=O)(=O)[O-])C3(C)C)c3csc(N)n3)C(=O)O)cc2)ccc1C(=O)NC(CN)CN [Example 80, (S)-3-((Z)-2-(2-aminothiazol-4-yl)-2-(((S)-1-carboxy-2-(4-(6-((1,3-diaminopropan-2-yl)carbamoyl)-1-methylpyridin-1-ium-3-yl)phenoxy)ethoxy)imino)acetamido)-2,2-dimethyl-4-oxoazetidin-1-yl sulfate] | 0.1953 µM | 3.125 µM
